The values below come from PubChem BioAssay AID220 (DTP/NCI, 2004).

Values joined by “and” are separate entries in the source; they are usually repeats but may differ in a detail not shown here. Identical values can stand only once. Records with an inconclusive call do not appear.

This assay has as its system CD8F1 mice, subcutaneous mammary adenocarcinoma, T/C%. Description: NCI In Vivo Anticancer Drug Screen. Data for tumor model Mammary Adenocarcinoma CD8F1 (subcutaneous) in CD8F1. The conditions noted are these: higher = larger tumour. The procedure:
The antitumor activity of compounds was measured in mice bearing transplantable tumors. Survival or tumor size were measured and the results are expressed as the measurement made in the treated group (T) divided by the measurement made in the vehicle treated control group (C). The tumor model used in this assay is Mammary Adenocarcinoma CD8F1 (subcutaneous) in CD8F1

Where [1] appears, read: endpoint: median tumor weight (est.), dose: 25.0 mg/kg/injection, schedule: Q07DX005 (ip), vehicle: Klucel (hydroxypropylcellulose) (HPC).
[2] abbreviates: endpoint: median tumor weight (est.), dose: 50.0 mg/kg/injection, schedule: Q07DX005 (ip), vehicle: Klucel (hydroxypropylcellulose) (HPC).
[3] abbreviates: endpoint: median tumor weight (est.), dose: 100.0 mg/kg/injection, schedule: Q07DX005 (ip), vehicle: Klucel (hydroxypropylcellulose) (HPC).
The mark [4] stands for this setting: endpoint: median tumor weight (est.), dose: 200.0 mg/kg/injection, schedule: Q07DX005 (ip), vehicle: Klucel (hydroxypropylcellulose) (HPC).
Setting [5] is: endpoint: median tumor weight (est.), dose: 25.0 mg/kg/injection, schedule: Q07DX005 (ip), vehicle: saline with Tween-80.
Where [6] appears, read: endpoint: median tumor weight (est.), dose: 50.0 mg/kg/injection, schedule: Q07DX005 (ip), vehicle: saline with Tween-80.
Setting [7] is: endpoint: median tumor weight (est.), dose: 200.0 mg/kg/injection, schedule: Q07DX005 (ip), vehicle: saline with Tween-80.
Setting [8] is: endpoint: median tumor weight change, dose: 125.0 mg/kg/injection, schedule: Q01DX001 (ip), vehicle: Klucel (hydroxypropylcellulose) (HPC).

For the compound `CC(C)CCC[C@@H](C)[C@H]1CC[C@H]2[C@@H]3CC=C4C[C@@H](OC(=O)Cc5ccc(N(CCCl)CCCl)cc5)CC[C@]4(C)[C@H]3CC[C@]12C`, the T/C under setting [1] is 91 % of control; the T/C under setting [2] is 73 % of control; the T/C under setting [3] is 123 % of control; the T/C under setting [4] is 57 % of control; the T/C (endpoint: median tumor weight (est.), dose: 400.0 mg/kg/injection, schedule: Q07DX005 (ip), vehicle: Klucel (hydroxypropylcellulose) (HPC)) is 102 % of control; the T/C (endpoint: median tumor weight (est.), dose: 800.0 mg/kg/injection, schedule: Q07DX005 (ip), vehicle: Klucel (hydroxypropylcellulose) (HPC)) is 36 % of control.
As to `C=CC(C)(C)n1cc(C2=C(O)C(=O)C(c3cn(C(C)(C)C=C)c4ccccc34)=C(O)C2=O)c2ccccc21`, the T/C is 122 % of control (endpoint: median tumor weight (est.), dose: 2.5 mg/kg/injection, schedule: Q07DX005 (ip), vehicle: Klucel (hydroxypropylcellulose) (HPC)); 74 % of control (endpoint: median tumor weight (est.), dose: 5.0 mg/kg/injection, schedule: Q07DX005 (ip), vehicle: Klucel (hydroxypropylcellulose) (HPC)); 91 % of control (endpoint: median tumor weight (est.), dose: 10.0 mg/kg/injection, schedule: Q07DX005 (ip), vehicle: Klucel (hydroxypropylcellulose) (HPC)); 157 % of control (endpoint: median tumor weight (est.), dose: 20.0 mg/kg/injection, schedule: Q07DX005 (ip), vehicle: Klucel (hydroxypropylcellulose) (HPC)); 168 % of control (endpoint: median tumor weight (est.), dose: 40.0 mg/kg/injection, schedule: Q07DX005 (ip), vehicle: Klucel (hydroxypropylcellulose) (HPC)); 64 % of control (endpoint: median tumor weight change, dose: 1.25 mg/kg/injection, schedule: Q01DX001 (ip), vehicle: DMSO). In addition, the T/C by setting is: (endpoint: median tumor weight change, dose: 2.5 mg/kg/injection, schedule: Q01DX001 (ip), vehicle: DMSO) 77 % of control; (endpoint: median tumor weight change, dose: 5.0 mg/kg/injection, schedule: Q01DX001 (ip), vehicle: DMSO) 86 % of control; (endpoint: median tumor weight change, dose: 10.0 mg/kg/injection, schedule: Q01DX001 (ip), vehicle: DMSO) 110 % of control.
On to `OC1(CSc2ccccc2)CCCCC1`, for which the T/C (endpoint: median tumor weight change, dose: 1000.0 mg/kg/injection, schedule: Q01DX001 (ip), vehicle: saline with Tween-80) was 13 % of control.
On to `Clc1ccc(CN2COc3c(ccc4cccnc34)C2)cc1Cl`, for which the T/C is, setting by setting: under setting [5], 113 % of control; under setting [6], 65 % of control; under setting [7], 66 % of control; (endpoint: median tumor weight (est.), dose: 400.0 mg/kg/injection, schedule: Q07DX005 (ip), vehicle: saline with Tween-80) 96 % of control.
In the case of `O=C(O)C1(C(=O)O)CCC1.[NH2-].[NH2-].[Pt+2]`, the T/C (endpoint: median tumor weight change, dose: 6.25 mg/kg/injection, schedule: Q01DX001 (ip), vehicle: dextrose) was 98 % of control; the T/C (endpoint: median tumor weight change, dose: 12.5 mg/kg/injection, schedule: Q01DX001 (ip), vehicle: dextrose) is 80 % of control; the T/C (endpoint: median tumor weight change, dose: 25.0 mg/kg/injection, schedule: Q01DX001 (ip), vehicle: dextrose) was 52 % of control.
As to `Nc1nc(=O)n(C2OC(CO)C(O)C2O)cc1F` (stereo not given), the T/C (endpoint: median tumor weight (est.), dose: 12.5 mg/kg/injection, schedule: Q07DX005 (ip), vehicle: saline) is 91 % of control; the T/C (endpoint: median tumor weight (est.), dose: 25.0 mg/kg/injection, schedule: Q07DX005 (ip), vehicle: saline) was 93 % of control; the T/C (endpoint: median tumor weight (est.), dose: 50.0 mg/kg/injection, schedule: Q07DX005 (ip), vehicle: saline) was 61 % of control; the T/C (endpoint: median tumor weight (est.), dose: 100.0 mg/kg/injection, schedule: Q07DX005 (ip), vehicle: saline) is 78 % of control; the T/C (endpoint: median tumor weight (est.), dose: 200.0 mg/kg/injection, schedule: Q07DX005 (ip), vehicle: saline) was 46 % of control; the T/C (endpoint: median tumor weight (est.), dose: 400.0 mg/kg/injection, schedule: Q07DX005 (ip), vehicle: saline) was 34 % of control.
With `C[CH2][Ge]1([CH2]C)[CH2]CC2(CCN(CCCN(C)C)C2)C[CH2]1`, the T/C (endpoint: mean tumor weight, dose: 25.0 mg/kg/injection, schedule: Q04DX009 (ip), vehicle: saline) was 113 % of control; the T/C (endpoint: mean tumor weight, dose: 50.0 mg/kg/injection, schedule: Q04DX009 (ip), vehicle: saline) is 87 % of control; the T/C (endpoint: mean tumor weight, dose: 100.0 mg/kg/injection, schedule: Q04DX009 (ip), vehicle: saline) is 40 % of control; the T/C (endpoint: median tumor weight (est.), dose: 2.0 mg/kg/injection, schedule: Q07DX005 (ip), vehicle: saline) was 67 % of control; the T/C (endpoint: median tumor weight (est.), dose: 4.0 mg/kg/injection, schedule: Q07DX005 (ip), vehicle: saline) was 57 % of control; the T/C (endpoint: median tumor weight (est.), dose: 16.0 mg/kg/injection, schedule: Q07DX005 (ip), vehicle: saline) was 74 % of control. In addition, the T/C was 55 % of control and 68 % of control (endpoint: median tumor weight (est.), dose: 32.0 mg/kg/injection, schedule: Q07DX005 (ip), vehicle: saline); 67 % of control and 77 % of control (endpoint: median tumor weight (est.), dose: 64.0 mg/kg/injection, schedule: Q07DX005 (ip), vehicle: saline).
As to `CC1CN=C(c2ccc(NC(=O)c3ccc(C(=O)Nc4ccc(C5=NCC(C)N5)cc4)cc3)cc2)N1` (stereo not given), the T/C is, setting by setting: under setting [2], 51 % of control; under setting [3], 94 % of control; under setting [4], 36 % of control.
With `CC(=O)NC(CCc1ccc(Cl)c(Cl)c1)c1cccc(O)c(=O)c1` (stereo not given), the T/C by setting is: (endpoint: median tumor weight change, dose: 31.0 mg/kg/injection, schedule: Q01DX001 (ip), vehicle: Klucel (hydroxypropylcellulose) (HPC)) 114 % of control; (endpoint: median tumor weight change, dose: 62.0 mg/kg/injection, schedule: Q01DX001 (ip), vehicle: Klucel (hydroxypropylcellulose) (HPC)) 99 % of control; under setting [8], 165 % of control; (endpoint: median tumor weight change, dose: 250.0 mg/kg/injection, schedule: Q01DX001 (ip), vehicle: Klucel (hydroxypropylcellulose) (HPC)) 88 % of control; (endpoint: median tumor weight change, dose: 500.0 mg/kg/injection, schedule: Q01DX001 (ip), vehicle: Klucel (hydroxypropylcellulose) (HPC)) 88 % of control.
For the compound `Oc1c(Cl)cc(C(c2cc(Cl)c(O)c(Cl)c2)C(c2cc(Cl)c(O)c(Cl)c2)c2cc(Cl)c(O)c(Cl)c2)cc1Cl`, the T/C was 540 % of control (endpoint: median tumor weight (est.), dose: 12.5 mg/kg/injection, schedule: Q07DX005 (ip), vehicle: Klucel (hydroxypropylcellulose) (HPC)); 341 % of control under setting [1]; 294 % of control under setting [2]; 84 % of control under setting [3]; 192 % of control under setting [4].
Consider `Cc1cc(Nc2ccc3c(c2)OCO3)c2cc3c(cc2n1)OCO3`, for which the T/C under setting [8] is 54 % of control.
For `C/C=C/c1cc2c(c(=O)o1)C(=O)[C@@H](O)[C@H](C)O2`, the T/C is 89 % of control (endpoint: median tumor weight (est.), dose: 12.5 mg/kg/injection, schedule: Q07DX005 (ip), vehicle: saline with Tween-80); 87 % of control under setting [5]; 102 % of control under setting [6]; 77 % of control (endpoint: median tumor weight (est.), dose: 100.0 mg/kg/injection, schedule: Q07DX005 (ip), vehicle: saline with Tween-80); 82 % of control under setting [7].
With `C/C=C\C1OC1(C)c1cc(=O)c2c(C)cc3c(c2o1)C(=O)c1c(O)c(C2CC(C)(N(C)C)C(OC(C)=O)C(C)O2)cc(C2CC(N(C)C)C(O)C(C)O2)c1C3=O` (stereo not given), the T/C was 69 % of control (endpoint: median tumor weight change, dose: 0.31 mg/kg/injection, schedule: Q01DX001 (ip), vehicle: saline + alcohol); 85 % of control (endpoint: median tumor weight change, dose: 0.62 mg/kg/injection, schedule: Q01DX001 (ip), vehicle: saline + alcohol); 70 % of control (endpoint: median tumor weight change, dose: 1.25 mg/kg/injection, schedule: Q01DX001 (ip), vehicle: saline + alcohol); 31 % of control (endpoint: median tumor weight change, dose: 2.5 mg/kg/injection, schedule: Q01DX001 (ip), vehicle: saline + alcohol); 34 % of control (endpoint: median tumor weight change, dose: 5.0 mg/kg/injection, schedule: Q01DX001 (ip), vehicle: saline + alcohol); 25 % of control (endpoint: median tumor weight change, dose: 10.0 mg/kg/injection, schedule: Q01DX001 (ip), vehicle: saline + alcohol).
As to `O=C1C=C2C(=CCOC2O)O1` (stereo not given), the T/C (endpoint: median tumor weight (est.), dose: 0.5 mg/kg/injection, schedule: Q07DX005 (ip), vehicle: Klucel (hydroxypropylcellulose) (HPC)) is 36 % of control; the T/C (endpoint: median tumor weight (est.), dose: 1.0 mg/kg/injection, schedule: Q07DX005 (ip), vehicle: Klucel (hydroxypropylcellulose) (HPC)) was 25 % of control; the T/C (endpoint: median tumor weight (est.), dose: 1.5 mg/kg/injection, schedule: Q07DX005 (ip), vehicle: saline) was 153 % of control; the T/C (endpoint: median tumor weight (est.), dose: 2.0 mg/kg/injection, schedule: Q07DX005 (ip), vehicle: Klucel (hydroxypropylcellulose) (HPC)) was 25 % of control; the T/C (endpoint: median tumor weight (est.), dose: 3.0 mg/kg/injection, schedule: Q07DX005 (ip), vehicle: saline) is 87 % of control; the T/C (endpoint: median tumor weight (est.), dose: 4.0 mg/kg/injection, schedule: Q07DX005 (ip), vehicle: Klucel (hydroxypropylcellulose) (HPC)) is 50 % of control. Further, where the note is “endpoint: median tumor weight change, dose: 5.0 mg/kg/injection, schedule: Q01DX001 (ip), vehicle: Klucel (hydroxypropylcellulose) (HPC)”, the T/C was 98 % of control.
With `Cc1nnc2ncccn12`, the T/C (endpoint: median tumor weight change, dose: 250.0 mg/kg/injection, schedule: Q01DX001 (ip), vehicle: saline) was 92 % of control.
